The values that follow come from patent EP1816136A1, “GPR7-SELECTIVE LIGAND AND USE THEREOF” (BANYU PHARMACEUTICAL CO., LTD., priority 2004, dated 2006).

Experiment [1] deals with T1, GPR7 (Homo sapiens, UniProt P48145).
T1 construct: expressed in transfected cells; host or cells: HEK293/CRE-BLA cells (AURORA), expression vector pIRES-hygro (Clontech)
T1 sequence (P48145 1-328): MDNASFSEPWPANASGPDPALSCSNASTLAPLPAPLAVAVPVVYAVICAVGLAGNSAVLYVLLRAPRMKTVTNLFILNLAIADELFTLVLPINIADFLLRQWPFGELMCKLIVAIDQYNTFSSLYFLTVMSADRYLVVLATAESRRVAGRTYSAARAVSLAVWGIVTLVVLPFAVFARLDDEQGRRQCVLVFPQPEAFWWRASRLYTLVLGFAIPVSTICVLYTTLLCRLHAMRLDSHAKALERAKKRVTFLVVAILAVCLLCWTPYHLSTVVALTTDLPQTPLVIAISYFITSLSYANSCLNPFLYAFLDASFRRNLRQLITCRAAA
Briefly: Measurement of activation capacity on GPR7 (CRE-BLA beta-lactamase reporter assay). It is filed as cell-based. The conditions noted are these: Table 1; HEK293/CRE-BLA cells expressing GPR7; forskolin 1 µM; 3 hours at 37°C. An excerpt:
(§1) A cDNA sequence coding for human GPR7 or GPR8 [see Genomics, vol. 28, p. 84 (1995)] was amplified by the PCR method, and cloned using the expression vector pIRES-hygro (Clontech). The resulting expression vector was transfected into HEK293/CRE-BLA cells (AURORA) using the cationic lipid method [see Proceedings of the National Academy of Sciences of the United States of America, vol. 84, p. 7413 (1987)] to obtain GPR7 or GPR8 expression cells.
(§2) In accordance with the method of Zlakarmik (see Science, 1998, vol. 279, p. 84), the activity of various synthetic peptides on GPR7 or GPR8 was measured. HEK293/CRE-BLA cells which expressed GPR7 or GPR8 (prepared in (2) of Test Example 1) were washed twice with PBS(-) buffer solution (GIBCO-BRL), and then Cell-dissociation buffer (GIBCO-BRL) was added. The system was kept at 37°C for 3 minutes in a CO2 incubator, and a culture flask was tapped to liberate the cells from the flask. After the cells were harvested by centrifugation, the cells were suspended in an Opti-MEM culture medium (GIBCO-BRL) containing 0.1 % BSA (Sigma) to count the cells and prepare a cell suspension containing 8×10^5 cells/mL. To 2 µL of a DMSO solution containing each test compound with a concentration of 50 times an end concentration, 50 µL of the 0.1% BSA-containing Opti-MEM medium incorporating forskolin (Sigma) so as to have an end concentration of 1 µM was added to form a reaction solution. To this reaction solution, 50 µL of the above cell suspension was added to initiate the reaction, and the system was incubated for 3 hours at 37°C in a CO2 incubator.
(§3) Then, using a BLA assay kit (AURORA), a coloring matter-introduced buffer solution incorporating 12 µL of Solution A [1 mM CCF2-AM/anhydrous DMSO solution], 120 µL of Solution B [100 mg/mL Pluronic 127, 0.1% acetic acid/DMSO solution], and 2 mL of Solution C [24% (w/w) PEG-400, 18% TR40/H2O] was prepared. This coloring matter-introduced buffer solution (20 µL) was added to the above-mentioned cell reaction mixture to introduce a β-lactamase substrate (CCF2-AM) into the cells. After the system was allowed to stand for 1 hour at room temperature, the fluorescence intensities of the sample at an excitation wavelength of 409 nm, at a fluorescence wavelength of 460 nm (a β-lactamase hydrolyzate of CCF), and at 530 nm (CCF) were measured. With β-lactamase activity (fluorescence intensity at 460 nm/fluorescence intensity at 530 nm) as an indicator, the activity of each of various peptides on GPR7 or GPR8 was measured, and the 50% effective concentration (EC50) of the test compound was calculated.
For orientation: Reporter assays use an easily measured gene product as a stand-in for the process of interest.

The target in experiment [2] is T2, GPR8 (Homo sapiens, UniProt P48146).
T2 construct: expressed in transfected cells; host or cells: HEK293/CRE-BLA cells (AURORA), expression vector pIRES-hygro (Clontech)
T2 sequence (P48146 whole entry): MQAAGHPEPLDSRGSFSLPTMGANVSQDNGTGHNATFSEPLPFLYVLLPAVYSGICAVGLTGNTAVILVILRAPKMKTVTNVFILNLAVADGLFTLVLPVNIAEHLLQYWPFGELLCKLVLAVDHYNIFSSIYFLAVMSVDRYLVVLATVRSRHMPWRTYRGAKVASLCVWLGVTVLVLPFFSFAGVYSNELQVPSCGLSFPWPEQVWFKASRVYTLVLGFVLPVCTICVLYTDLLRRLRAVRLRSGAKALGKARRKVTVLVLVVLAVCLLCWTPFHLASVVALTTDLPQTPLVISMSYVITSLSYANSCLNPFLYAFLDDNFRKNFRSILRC
Briefly: Binding inhibition test with [125I]-[Phe2]-hNPW(1-23), GPR8 membrane preparation. The protocol: (§4) One nmol of [Phe2]-hNPW(1-23) (prepared in Synthesis Example 19) was dissolved in 5 µL of anhydrous DMSO, and the solution was mixed with 0.1M nickel chloride. Then, the mixture was mixed with 10 µL of a 0.00 1 % aqueous solution of hydrogen peroxide, 10 µL of an enzyme solution (lactoperoxidase (Sigma) adjusted to 10 µg/mL with a 0.1M HEPES buffer solution), and 37 Mbq/10 µL of Iodine-125 (Amersham), whereafter the resulting mixture was reacted for 60 minutes at room temperature. The reaction was terminated with the addition of 10 µL of 1% sodium azide, and then a radiolabeled peptide fraction was collected by a PD-10 gel filtration column (Amersham) to obtain [^125I]-[Phe2]-hNPW(1-23).
as §1
(§5) A membrane preparation prepared from the cells expressing GPR7 or GPR8 was incubated for 1 hour at room temperature in an assay buffer solution (25 mM Tris buffer solution, 150 mM NaCl, pH 7.4) together with a test compound and 28,000 cpm of [^125I]-[Phe2]-hNPW(1-23). Then, the system was filtered through the glass filter GF/C. After washing with 25 mM Tris buffer solution (pH 7.4), radioactivity on the glass filter was measured. Nonspecific binding was measured in the presence of 1 µM hNPW (prepared in Synthesis Example 1), and the 50% inhibition concentration (IC50 value) of the test compound against [Phe2]-hNPW(1-23) specific binding was calculated [see Molecular Pharmacology, vol. 55, 1101 (1999)].

The target of experiment [3] is T2, GPR8. Briefly: Measurement of activation capacity on GPR8 (CRE-BLA beta-lactamase reporter assay). It counts as cell-based. As to conditions: Table 1; HEK293/CRE-BLA cells expressing GPR8; forskolin 1 µM; 3 hours at 37°C; read-out: GPR8 (nM) EC 50.
From the text: as §1, §2, §3

Experiment [4] has as its target T1, GPR7. Briefly: Binding inhibition test with [125I]-[Phe2]-hNPW(1-23), GPR7 membrane preparation. As to the method: as §4, §1, §5
Where [5] appears, read: Table 1, membrane preparation of HEK293/CRE-BLA cells expressing GPR8, 1 hour at room temperature.
The mark [6] stands for this setting: Table 1, membrane preparation of HEK293/CRE-BLA cells expressing GPR7, 1 hour at room temperature.
Where [7] appears, read: Table 2, membrane preparation of cells expressing GPR8.
[8] abbreviates: Table 2, membrane preparation of cells expressing GPR7.

Non-standard residues stand in square brackets, D forms with d. Residues, ends and D or L forms follow the SMILES beside them. 3Abz = Nc1cccc(C(=O)O)c1; 4Abz = Nc1ccc(C(=O)O)cc1; Ava = NCCCCC(=O)O

As for `CC(C)C[C@H](NC(=O)CNC(=O)[C@H](CO)NC(=O)[C@H](CC(C)C)NC(=O)[C@H](CC(C)C)NC(=O)CNC(=O)[C@H](C)NC(=O)[C@H](C)NC(=O)[C@H](CCCNC(=N)N)NC(=O)CNC(=O)CCCCNC(=O)[C@H](CCCCN)NC(=O)[C@H](Cc1ccc(O)cc1)NC(=O)[C@@H](N)Cc1c[nH]c2ccccc12)C(N)=O` [compound 5] (H-WYK[Ava]GRAAGLLSGL-NH2), the EC50 at GPR7 [1] is 1.7 nM; at GPR8 [3], 280 nM. For the same molecule, the IC50 is 310 nM at GPR8 [2] (setting [5]) and 0.55 nM on GPR7 [4] (setting [6]).
The like results for `CC(C)C[C@H](NC(=O)CNC(=O)[C@H](CO)NC(=O)[C@H](CC(C)C)NC(=O)[C@H](CC(C)C)NC(=O)CNC(=O)[C@H](C)NC(=O)[C@H](C)NC(=O)[C@H](CCCNC(=N)N)NC(=O)CNC(=O)CCCCNC(=O)CCCCNC(=O)CCCCNC(=O)[C@H](CCCCN)NC(=O)[C@H](Cc1ccc(O)cc1)NC(=O)[C@@H](N)Cc1c[nH]c2ccccc12)C(N)=O` [compound 7] (H-WYK[Ava][Ava][Ava]GRAAGLLSGL-NH2) were, in that order, 0.48 nM, 77 nM, 260 nM and 0.09 nM.
The like results for `CC(C)C[C@H](NC(=O)CNC(=O)[C@H](CO)NC(=O)[C@H](CC(C)C)NC(=O)[C@H](CC(C)C)NC(=O)CNC(=O)[C@H](C)NC(=O)[C@H](C)NC(=O)[C@H](CCCNC(=N)N)NC(=O)CNC(=O)[C@@H](NC(=O)[C@H](CO)NC(=O)[C@H](Cc1ccc(O)cc1)NC(=O)[C@H](CO)NC(=O)[C@H](CO)NC(=O)[C@H](Cc1cnc[nH]1)NC(=O)CNC(=O)[C@H](C)NC(=O)[C@H](C)NC(=O)[C@@H]1CCCN1C(=O)[C@H](CCCCN)NC(=O)[C@H](Cc1ccc(O)cc1)NC(=O)[C@@H](N)Cc1c[nH]c2ccccc12)C(C)C)C(N)=O` [compound 4] were, in that order, 0.24 nM, 0.86 nM, 24 nM and 0.23 nM.
The matching figures for `CC(C)C[C@H](NC(=O)CNC(=O)[C@H](CO)NC(=O)[C@H](CC(C)C)NC(=O)[C@H](CC(C)C)NC(=O)CNC(=O)[C@H](C)NC(=O)[C@H](C)NC(=O)[C@H](CCCNC(=N)N)NC(=O)CNC(=O)CCCCNC(=O)CCCCNC(=O)[C@H](CCCCN)NC(=O)[C@H](Cc1ccc(O)cc1)NC(=O)[C@@H](N)Cc1c[nH]c2ccccc12)C(N)=O` [compound 6] (H-WYK[Ava][Ava]GRAAGLLSGL-NH2): 2.2 nM, 94 nM, 300 nM and 0.47 nM.
On to `CC(C)C[C@H](NC(=O)CNC(=O)[C@H](CO)NC(=O)[C@H](CC(C)C)NC(=O)[C@H](CC(C)C)NC(=O)CNC(=O)[C@H](C)NC(=O)[C@H](C)NC(=O)[C@H](CCCNC(=N)N)NC(=O)CNC(=O)CCCCNC(=O)CCCCNC(=O)c1cccc(NC(=O)[C@H](CCCCN)NC(=O)[C@H](Cc2ccc(O)cc2)NC(=O)[C@@H](N)Cc2c[nH]c3ccccc23)c1)C(N)=O` [compound 17] (H-WYK[3Abz][Ava][Ava]GRAAGLLSGL-NH2), for which the IC50 at GPR8 [2] (setting [7]) was 33 nM; at GPR7 [4] (setting [8]) it was 0.34 nM.
Take `CC(C)C[C@H](NC(=O)CNC(=O)[C@H](CO)NC(=O)[C@H](CC(C)C)NC(=O)[C@H](CC(C)C)NC(=O)CNC(=O)[C@H](C)NC(=O)[C@H](C)NC(=O)[C@H](CCCNC(=N)N)NC(=O)CNC(=O)CCCCNC(=O)CCCCNC(=O)CCCCNC(=O)CCCCNC(=O)[C@H](CCCCN)NC(=O)[C@H](Cc1ccc(O)cc1)NC(=O)[C@@H](N)Cc1c[nH]c2ccccc12)C(N)=O` [compound 8] (H-WYK[Ava][Ava][Ava][Ava]GRAAGLLSGL-NH2): the EC50 at GPR7 [1] turned out to be 1.2 nM; at GPR8 [3], 51 nM. Further, the half-inhibitory concentration (IC50) on GPR8 [2] (setting [5]) stood at 360 nM; at GPR7 [4] (setting [6]), 1.1 nM.
Take `CC(C)C[C@H](NC(=O)CNC(=O)[C@H](CO)NC(=O)[C@H](CC(C)C)NC(=O)[C@H](CC(C)C)NC(=O)CNC(=O)[C@H](C)NC(=O)[C@H](C)NC(=O)[C@H](CCCNC(=N)N)NC(=O)CNC(=O)CCCCNC(=O)CCCCNC(=O)c1ccc(NC(=O)[C@H](CCCCN)NC(=O)[C@H](Cc2ccc(O)cc2)NC(=O)[C@@H](N)Cc2c[nH]c3ccccc23)cc1)C(N)=O` [compound 18] (H-WYK[4Abz][Ava][Ava]GRAAGLLSGL-NH2): the results for the IC50 at GPR8 [2] (setting [7]) and at GPR7 [4] (setting [8]) were 190 nM and 5.6 nM, respectively.
On to `CC(C)C[C@H](NC(=O)CNC(=O)[C@H](CO)NC(=O)[C@H](CC(C)C)NC(=O)[C@H](CC(C)C)NC(=O)CNC(=O)[C@H](C)NC(=O)[C@H](C)NC(=O)[C@H](CCCNC(=N)N)NC(=O)CNC(=O)c1ccc(NC(=O)CCCCNC(=O)CCCCNC(=O)[C@H](CCCCN)NC(=O)[C@H](Cc2ccc(O)cc2)NC(=O)[C@@H](N)Cc2c[nH]c3ccccc23)cc1)C(N)=O` [compound 12] (H-WYK[Ava][Ava][4Abz]GRAAGLLSGL-NH2), for which the values for the IC50 at GPR8 [2] (setting [7]) and on GPR7 [4] (setting [8]) were 5.1 nM and 0.35 nM, respectively.

Usually IC50 stands for the concentration at which inhibition is half-maximal. A high value points to weaker potency in that assay.
